From ChEMBL document CHEMBL1156607, “A new multi-gram synthetic route to labeling precursors for the D(2/3) PET agent 18F-fallypride” (Bioorg Med Chem Lett, 2008)

Target: D(2) dopamine receptor (Homo sapiens, UniProt P14416)
Test: Antagonist activity at dopamine D2 receptor
Format: functional

Sequence of D(2) dopamine receptor (P14416 whole entry): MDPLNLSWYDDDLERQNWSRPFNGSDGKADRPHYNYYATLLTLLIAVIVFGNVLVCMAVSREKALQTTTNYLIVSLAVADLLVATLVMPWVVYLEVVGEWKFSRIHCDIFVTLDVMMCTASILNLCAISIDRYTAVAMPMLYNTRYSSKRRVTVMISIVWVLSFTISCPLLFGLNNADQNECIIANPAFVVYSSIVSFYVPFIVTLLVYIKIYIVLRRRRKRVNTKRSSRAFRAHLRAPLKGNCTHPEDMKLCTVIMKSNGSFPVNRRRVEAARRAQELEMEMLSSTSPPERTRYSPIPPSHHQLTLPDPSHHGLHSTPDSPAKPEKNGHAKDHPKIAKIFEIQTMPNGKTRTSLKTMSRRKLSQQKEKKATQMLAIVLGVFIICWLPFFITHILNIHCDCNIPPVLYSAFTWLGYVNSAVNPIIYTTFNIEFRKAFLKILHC

| IC50 [nM] | SMILES |
| --- | --- |
| 5 | C=CCN1CCC[C@H]1CNC(=O)c1cc(CCCF)cc(OC)c1OC [FALLYPRIDE] |
| 17.1 | C=CCN1CCC[C@H]1CNC(=O)c1cc(CCCCl)cc(OC)c1OC |
